In the assay the target is GPR84 (Mus musculus, UniProt Q8CIM5). As to the kind of experiment: cAMP inhibition assay in Dox-inducible mouse GPR84 HEK293 cells, with Dox-uninduced controls. In kind it is cell-based.

These results are taken from PMC9977302, “Medium-chain fatty acids suppress lipotoxicity-induced hepatic fibrosis via the immunomodulating receptor GPR84” (JCI Insight, 2023).

Where two headings read alike, the source gives them in different places.

Chain of GPR84 (Q8CIM5 whole entry): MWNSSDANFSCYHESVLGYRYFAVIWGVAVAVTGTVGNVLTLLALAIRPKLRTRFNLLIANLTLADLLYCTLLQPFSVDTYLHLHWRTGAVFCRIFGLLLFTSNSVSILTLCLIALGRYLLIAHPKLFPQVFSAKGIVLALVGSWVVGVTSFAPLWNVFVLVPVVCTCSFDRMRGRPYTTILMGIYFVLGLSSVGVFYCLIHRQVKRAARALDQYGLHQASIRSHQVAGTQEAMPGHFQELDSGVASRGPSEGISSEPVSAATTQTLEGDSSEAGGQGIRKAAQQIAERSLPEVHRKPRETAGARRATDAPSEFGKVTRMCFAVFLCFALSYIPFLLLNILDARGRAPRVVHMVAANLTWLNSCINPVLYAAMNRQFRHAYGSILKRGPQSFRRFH

With `CCCCCCCCCC(=O)O` [C10:0, capric acid], a half-maximal effect (EC50) was put at 3.5 µM.

On to `CCCCCCCCCCCC(=O)O` [C12:0], for which the half-maximal effective concentration (EC50) (read-out: EC50) was determined as 4.4 µM.
